Test results from patent US8455688B2, “HDAC inhibitors” (Lixte Biotechnology, Inc., priority 2007, dated 2013).

Tested on: cell line U-87
Experiment: Activity against the cell line U-87
Format: cell-based, human
Details: potency on an equimolar basis

Compound	activity against the cell line U-87
O=C(CCCCCCCNC(=O)c1ccccc1S)Nc1ccccc1 [Compound 213]	most potent on an equimolar basis
O=C(CCCCCCNC(=O)c1ccccc1S)Nc1ccccc1 [Compound 212, 2-Mercapto-N-(6-phenylcarbamoyl-hexyl)benzamide]	most potent on an equimolar basis
